From ChEMBL document CHEMBL3044826, “Design, synthesis and biological evaluation of some novel substituted 2-mercapto-3-phenethylquinazolines as antitumor agents” (2013)

Assays:
Format in all cases: functional
TK-10 = assay: Cytotoxicity against Homo sapiens (human) TK10 cells assessed as growth inhibition at 10 uM after 48 hr by coulter counter analysis; settings: TK-10, 48 h, read-out: GI
SN12C = assay: Cytotoxicity against Homo sapiens (human) SN12C cells assessed as growth inhibition at 10 uM after 48 hr by coulter counter analysis; settings: read-out: GI
RXF 393 = assay: Cytotoxicity against Homo sapiens (human) RXF393 cells assessed as growth inhibition at 10 uM after 48 hr by coulter counter analysis; settings: RXF 393, 48 h, read-out: GI
CAKI-1 = assay: Cytotoxicity against Homo sapiens (human) Caki1 cells assessed as growth inhibition at 10 uM after 48 hr by coulter counter analysis; settings: CAKI-1, 48 h, read-out: GI
ACHN = assay: Cytotoxicity against Homo sapiens (human) ACHN cells assessed as growth inhibition at 10 uM after 48 hr by coulter counter analysis; settings: read-out: GI
SK-OV-3 = assay: Cytotoxicity against Homo sapiens (human) SKOV3 cells assessed as growth inhibition at 10 uM after 48 hr by coulter counter analysis; settings: SK-OV-3, 48 h, read-out: GI
MDA-MB-468 = assay: Cytotoxicity against Homo sapiens (human) MDA-MB-468 cells assessed as growth inhibition at 10 uM after 48 hr by coulter counter analysis; settings: MDA-MB-468, 48 h, read-out: GI
BT-549 = assay: Cytotoxicity against Homo sapiens (human) BT549 cells assessed as growth inhibition at 10 uM after 48 hr by coulter counter analysis; settings: BT-549, 48 h, read-out: GI
MDA-MB-231 = assay: Cytotoxicity against Homo sapiens (human) MDA-MB-231 cells assessed as growth inhibition at 10 uM after 48 hr by coulter counter analysis; settings: MDA-MB-231, 48 h, read-out: GI
MCF7 = assay: Cytotoxicity against Homo sapiens (human) MCF7 cells assessed as growth inhibition at 10 uM after 48 hr by coulter counter analysis; settings: MCF7, 48 h, read-out: GI
DU-145 = assay: Cytotoxicity against Homo sapiens (human) DU145 cells assessed as growth inhibition at 10 uM after 48 hr by coulter counter analysis; settings: DU-145, 48 h, read-out: GI
PC-3 = assay: Cytotoxicity against Homo sapiens (human) PC3 cells assessed as growth inhibition at 10 uM after 48 hr by coulter counter analysis; settings: PC-3, 48 h, read-out: GI
SK-MEL-28 = assay: Cytotoxicity against Homo sapiens (human) SK-MEL-28 cells assessed as growth inhibition at 10 uM after 48 hr by coulter counter analysis; settings: SK-MEL-28, 48 h, read-out: GI
MDA-MB-435 = assay: Cytotoxicity against Homo sapiens (human) MDA-MB-435 cells assessed as growth inhibition at 10 uM after 48 hr by coulter counter analysis; settings: MDA-MB-435, 48 h, read-out: GI
M14 = assay: Cytotoxicity against Homo sapiens (human) M14 cells assessed as growth inhibition at 10 uM after 48 hr by coulter counter analysis; settings: M14, 48 h, read-out: GI
Malme-3M = assay: Cytotoxicity against Homo sapiens (human) MALME-3M cells assessed as growth inhibition at 10 uM after 48 hr by coulter counter analysis; settings: read-out: GI
LOX IMVI = assay: Cytotoxicity against Homo sapiens (human) LOXIMVI cells assessed as growth inhibition at 10 uM after 48 hr by coulter counter analysis; settings: read-out: GI
SNB-75 = assay: Cytotoxicity against Homo sapiens (human) SNB75 cells assessed as growth inhibition at 10 uM after 48 hr by coulter counter analysis; settings: SNB-75, 48 h, read-out: GI
SNB-19 = assay: Cytotoxicity against Homo sapiens (human) SNB19 cells assessed as growth inhibition at 10 uM after 48 hr by coulter counter analysis; settings: SNB-19, 48 h, read-out: GI
SF-539 = assay: Cytotoxicity against Homo sapiens (human) SF539 cells assessed as growth inhibition at 10 uM after 48 hr by coulter counter analysis; settings: SF-539, 48 h, read-out: GI
SF-268 = assay: Cytotoxicity against Homo sapiens (human) SF268 cells assessed as growth inhibition at 10 uM after 48 hr by coulter counter analysis; settings: SF-268, 48 h, read-out: GI
KM12 = assay: Cytotoxicity against Homo sapiens (human) KM12 cells assessed as growth inhibition at 10 uM after 48 hr by coulter counter analysis; settings: KM12, 48 h, read-out: GI
SW-620 = assay: Cytotoxicity against Homo sapiens (human) SW620 cells assessed as growth inhibition at 10 uM after 48 hr by coulter counter analysis; settings: SW-620, 48 h, read-out: GI
HT-29 = assay: Cytotoxicity against Homo sapiens (human) HT-29 cells assessed as growth inhibition at 10 uM after 48 hr by coulter counter analysis; settings: HT-29, 48 h, read-out: GI
HCT-116 = assay: Cytotoxicity against Homo sapiens (human) HCT116 cells assessed as growth inhibition at 10 uM after 48 hr by coulter counter analysis; settings: HCT-116, 48 h, read-out: GI
HCT-15 = assay: Cytotoxicity against Homo sapiens (human) HCT15 cells assessed as growth inhibition at 10 uM after 48 hr by coulter counter analysis; settings: HCT-15, 48 h, read-out: GI
OVCAR-8 = assay: Cytotoxicity against Homo sapiens (human) OVCAR8 cells assessed as growth inhibition at 10 uM after 48 hr by coulter counter analysis; settings: OVCAR-8, 48 h, read-out: GI
OVCAR-5 = assay: Cytotoxicity against Homo sapiens (human) OVCAR5 cells assessed as growth inhibition at 10 uM after 48 hr by coulter counter analysis; settings: OVCAR-5, 48 h, read-out: GI
OVCAR-4 = assay: Cytotoxicity against Homo sapiens (human) OVCAR4 cells assessed as growth inhibition at 10 uM after 48 hr by coulter counter analysis; settings: OVCAR-4, 48 h, read-out: GI
OVCAR-3 = assay: Cytotoxicity against Homo sapiens (human) OVCAR3 cells assessed as growth inhibition at 10 uM after 48 hr by coulter counter analysis; settings: OVCAR-3, 48 h, read-out: GI
NCI-H23 = assay: Cytotoxicity against Homo sapiens (human) NCI-H23 cells assessed as growth inhibition at 10 uM after 48 hr by coulter counter analysis; settings: NCI-H23, 48 h, read-out: GI
HOP-62 = assay: Cytotoxicity against Homo sapiens (human) HOP62 cells assessed as growth inhibition at 10 uM after 48 hr by coulter counter analysis; settings: HOP-62, 48 h, read-out: GI
EKVX = assay: Cytotoxicity against Homo sapiens (human) EKVX cells assessed as growth inhibition at 10 uM after 48 hr by coulter counter analysis; settings: read-out: GI
A549 = assay: Cytotoxicity against Homo sapiens (human) A549 cells assessed as growth inhibition at 10 uM after 48 hr by coulter counter analysis; settings: A549, 48 h, read-out: GI

SMILES | inhibition of growth at 10 µM (TK-10) [%] | inhibition of growth at 10 µM (SN12C) [%] | inhibition of growth at 10 µM (RXF 393) [%] | inhibition of growth at 10 µM (CAKI-1) [%] | inhibition of growth at 10 µM (ACHN) [%] | inhibition of growth at 10 µM (SK-OV-3) [%] | inhibition of growth at 10 µM (MDA-MB-468) [%] | inhibition of growth at 10 µM (BT-549) [%] | inhibition of growth at 10 µM (MDA-MB-231) [%] | inhibition of growth at 10 µM (MCF7) [%] | inhibition of growth at 10 µM (DU-145) [%] | inhibition of growth at 10 µM (PC-3) [%] | inhibition of growth at 10 µM (SK-MEL-28) [%] | inhibition of growth at 10 µM (MDA-MB-435) [%] | inhibition of growth at 10 µM (M14) [%] | inhibition of growth at 10 µM (Malme-3M) [%] | inhibition of growth at 10 µM (LOX IMVI) [%] | inhibition of growth at 10 µM (SNB-75) [%] | inhibition of growth at 10 µM (SNB-19) [%] | inhibition of growth at 10 µM (SF-539) [%] | further results
O=C(CSc1nc2ccccc2c(=O)n1CCc1ccccc1)c1ccccc1 | < 10 | < 10 | < 10 | 22 | < 10 | < 10 | 14 | < 10 | 11 | < 10 | < 10 | 14 | < 10 | < 10 | < 10 | 14 | < 10 | 18 | < 10 | < 10 | inhibition of growth at 10 µM (SF-268): < 10%; inhibition of growth at 10 µM (KM12): < 10%; inhibition of growth at 10 µM (SW-620): < 10%; inhibition of growth at 10 µM (HT-29): < 10%; inhibition of growth at 10 µM (HCT-116): 19%; inhibition of growth at 10 µM (HCT-15): < 10%; inhibition of growth at 10 µM (OVCAR-8): 15%; inhibition of growth at 10 µM (OVCAR-5): < 10%; inhibition of growth at 10 µM (OVCAR-4): < 10%; inhibition of growth at 10 µM (OVCAR-3): < 10%; inhibition of growth at 10 µM (NCI-H23): < 10%; inhibition of growth at 10 µM (HOP-62): < 10%; inhibition of growth at 10 µM (EKVX): 18%; inhibition of growth at 10 µM (A549): 18%
COc1ccc(-n2c(S)nnc2CSc2nc3ccccc3c(=O)n2CCc2ccccc2)cc1 | < 10 | < 10 | < 10 | 17 | < 10 | < 10 | 38 | < 10 | 20 | 28 | < 10 | 30 | < 10 | < 10 | < 10 | < 10 | < 10 | < 10 | < 10 | < 10 | inhibition of growth at 10 µM (SF-268): < 10%; inhibition of growth at 10 µM (KM12): < 10%; inhibition of growth at 10 µM (SW-620): < 10%; inhibition of growth at 10 µM (HT-29): < 10%; inhibition of growth at 10 µM (HCT-116): < 10%; inhibition of growth at 10 µM (HCT-15): 25%; inhibition of growth at 10 µM (OVCAR-8): < 10%; inhibition of growth at 10 µM (OVCAR-5): < 10%; inhibition of growth at 10 µM (OVCAR-4): < 10%; inhibition of growth at 10 µM (OVCAR-3): < 10%; inhibition of growth at 10 µM (NCI-H23): < 10%; inhibition of growth at 10 µM (HOP-62): < 10%; inhibition of growth at 10 µM (EKVX): 31%; inhibition of growth at 10 µM (A549): < 10%
O=c1c2ccccc2nc(SCCN2CCCCC2)n1CCc1ccccc1 | < 10 | < 10 | 19 | 27 | < 10 | < 10 | < 10 | 14 | 34 | 37 | 11 | < 10 | < 10 | < 10 | < 10 | < 10 | 19 | 13 | < 10 | < 10 | inhibition of growth at 10 µM (SF-268): < 10%; inhibition of growth at 10 µM (KM12): < 10%; inhibition of growth at 10 µM (SW-620): 11%; inhibition of growth at 10 µM (HT-29): 70%; inhibition of growth at 10 µM (HCT-116): 27%; inhibition of growth at 10 µM (HCT-15): 20%; inhibition of growth at 10 µM (OVCAR-8): < 10%; inhibition of growth at 10 µM (OVCAR-5): 12%; inhibition of growth at 10 µM (OVCAR-4): 14%; inhibition of growth at 10 µM (OVCAR-3): < 10%; inhibition of growth at 10 µM (NCI-H23): 23%; inhibition of growth at 10 µM (HOP-62): 11%; inhibition of growth at 10 µM (EKVX): 30%; inhibition of growth at 10 µM (A549): 13%
